Measured values published in US8455553B2, “Methods and compositions for prevention and treatment of inflammatory disease, autoimmune disease and transplant rejection” (The Regents of the University of California, priority 2001, dated 2013).
“Also recorded” adds a separate entry of the source. Like-named read-outs stand apart in the source and are kept apart here.

Tests used:
[1] = test system: Ovalbumin immunized mice; test: Ovalbumin asthma model, cell infiltration in bronchioalveolar lavage fluid; type: in vivo; details: 1 mg i.p. daily, FIG. 11
Procedure: Mice (8 animals) were immunized by intraperitoneal (i.p.) injection of Ovalbumin after 2 weeks, The OA solution was administered into the nasal passage by inhalation without (4) or with (4) concurrent piceatannol regimen (1 mg i.p. daily).

[2] = test system: MBP-TCR+/STAT1- mice developing spontaneous paralysis; test: Experimental autoimmune encephalomyelitis (EAE), model for multiple sclerosis; type: in vivo
Excerpt: Experimental autoimmune encephalomyelitis (EAE) represents a murine model for multiple sclerosis, a TH1 cells mediated demyelinating autoimmune disorder. In this modes, STAT1-deficient mice (Jackson Laboratories, Maine, USA) were crossed with mice carrying a tansgenic T cell receptor against Myelin Basis Protein (MBP) [Lafaille et al. (1994) Cell 78(3):399-408]. The resulting MBP-TCR^+/STAT1^− mice, when on an H2b/u or H2u/u background develop spontaneous paralysis. Typically, in this transgenic system, the disease progresses from early signs of hind leg paralysis (level 2) to the moribund stage of lethal paralysis (level 5) within 4-5 days.
Three mice showing clear signs of hind leg paralysis were injected s.c. with 1 mg piceatannol every 48 hours (FIG. 10). Under this regimen these animals survived for 30 days, at which time piceatannol administration was stopped.

[3] = test system: LPS induced gene expression (RANTES, MCP-1, ISG54, TNF); test: LPS induced gene expression (interferon regulated genes) in vitro; type: cell-based
[4] = test system: TNFα; test: Production of TNFα in response to LPS in vitro; type: cell-based
[5] = target: T1, tyrosine kinase ZAP70 (Homo sapiens, UniProt P43403); details: Geahlen, et al. (1989); cited from earlier work
T1 sequence (P43403 1-619): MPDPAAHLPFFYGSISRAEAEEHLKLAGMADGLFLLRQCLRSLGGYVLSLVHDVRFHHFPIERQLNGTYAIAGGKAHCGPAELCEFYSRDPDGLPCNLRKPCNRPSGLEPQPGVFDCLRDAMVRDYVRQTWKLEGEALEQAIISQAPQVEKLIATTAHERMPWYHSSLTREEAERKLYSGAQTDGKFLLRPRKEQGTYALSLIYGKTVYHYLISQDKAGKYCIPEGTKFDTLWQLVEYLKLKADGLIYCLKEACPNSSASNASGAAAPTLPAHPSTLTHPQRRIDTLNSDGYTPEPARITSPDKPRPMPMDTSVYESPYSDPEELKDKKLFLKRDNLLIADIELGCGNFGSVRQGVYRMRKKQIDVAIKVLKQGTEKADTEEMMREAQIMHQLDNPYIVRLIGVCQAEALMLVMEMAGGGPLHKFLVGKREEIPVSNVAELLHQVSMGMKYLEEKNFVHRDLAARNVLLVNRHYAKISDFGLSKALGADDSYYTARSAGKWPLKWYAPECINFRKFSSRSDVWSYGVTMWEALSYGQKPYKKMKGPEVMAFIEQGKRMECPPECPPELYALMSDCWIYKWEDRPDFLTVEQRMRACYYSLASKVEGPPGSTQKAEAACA

[6] = test system: tyrosine kinase Syk; details: Geahlen, et al. (1989); cited from earlier work
[7] = target: tyrosine kinase Tyk2 (Homo sapiens, UniProt P29597); details: Su, et al. (2000); cited from earlier work
[8] = test system: endotoxic shock induced by intraperitoneal injection of 1 μg LPS in the presence of 20 mg D-galactosamine in laboratory mice; test: Endotoxic shock, low dose model (1 μg LPS + D-Gal), lethality; type: in vivo; details: for Mortality, percent dead: Table 3, Low Dose Model (1 μg LPS + D-Gal); for Mortality caused by septic shock: intraperitoneal administration prior to LPS challenge (Table 3)
Procedure: Endotoxic shock was induced by intraperitoneal injection of 1 μg LPS into laboratory mice in the presence of 20 mg D-galactosamine (D-Gal). This regimen leads to a 90-100% lethality rate by 9-12 hours post injection. The following data in Tables 1-3 reports the mortality rate over 28 days of observation. In one experiment, animals were treated intra peritoneally with piceatannol. […]

[9] = cited from earlier work
[10] = test system: septic shock induced by 1000 μg LPS intraperitoneally in mice; test: Septic shock, high dose model (1000 μg LPS), lethality; type: in vivo; details: for Mortality, percent dead: Table 3, High Dose Model (1000 μg LPS), 1000 μM pre, 500 μM SC post every 12; for Mortality caused by septic shock: intraperitoneal administration prior to LPS challenge coupled with subcutaneous administration following LPS challenge (Table 3)
Procedure: (§1) Endotoxic shock was induced by intraperitoneal injection of 1 μg LPS into laboratory mice in the presence of 20 mg D-galactosamine (D-Gal). This regimen leads to a 90-100% lethality rate by 9-12 hours post injection. The following data in Tables 1-3 reports the mortality rate over 28 days of observation. In one experiment, animals were treated intra peritoneally with piceatannol.
In another experiment, 1 mg of LPS was administered intraperitoneally. Piceatannol or tetramethoxy-piceatannol (TMP) were administered intraperitoneally prior to LPS treatment, with some mice receiving subcutaneous doses of either piceatannol or TMP following LPS administration.

[11] = test system: IL-6; test: Production of IL-6 in response to LPS in vitro; type: cell-based
[12] = test system: mice that had received piceatannol alone; test: Toxicity of piceatannol alone in mice; type: in vivo; details: for Lethality rate: no LPS
Procedure: as §1

Chain of tyrosine kinase Tyk2 (P29597 whole entry): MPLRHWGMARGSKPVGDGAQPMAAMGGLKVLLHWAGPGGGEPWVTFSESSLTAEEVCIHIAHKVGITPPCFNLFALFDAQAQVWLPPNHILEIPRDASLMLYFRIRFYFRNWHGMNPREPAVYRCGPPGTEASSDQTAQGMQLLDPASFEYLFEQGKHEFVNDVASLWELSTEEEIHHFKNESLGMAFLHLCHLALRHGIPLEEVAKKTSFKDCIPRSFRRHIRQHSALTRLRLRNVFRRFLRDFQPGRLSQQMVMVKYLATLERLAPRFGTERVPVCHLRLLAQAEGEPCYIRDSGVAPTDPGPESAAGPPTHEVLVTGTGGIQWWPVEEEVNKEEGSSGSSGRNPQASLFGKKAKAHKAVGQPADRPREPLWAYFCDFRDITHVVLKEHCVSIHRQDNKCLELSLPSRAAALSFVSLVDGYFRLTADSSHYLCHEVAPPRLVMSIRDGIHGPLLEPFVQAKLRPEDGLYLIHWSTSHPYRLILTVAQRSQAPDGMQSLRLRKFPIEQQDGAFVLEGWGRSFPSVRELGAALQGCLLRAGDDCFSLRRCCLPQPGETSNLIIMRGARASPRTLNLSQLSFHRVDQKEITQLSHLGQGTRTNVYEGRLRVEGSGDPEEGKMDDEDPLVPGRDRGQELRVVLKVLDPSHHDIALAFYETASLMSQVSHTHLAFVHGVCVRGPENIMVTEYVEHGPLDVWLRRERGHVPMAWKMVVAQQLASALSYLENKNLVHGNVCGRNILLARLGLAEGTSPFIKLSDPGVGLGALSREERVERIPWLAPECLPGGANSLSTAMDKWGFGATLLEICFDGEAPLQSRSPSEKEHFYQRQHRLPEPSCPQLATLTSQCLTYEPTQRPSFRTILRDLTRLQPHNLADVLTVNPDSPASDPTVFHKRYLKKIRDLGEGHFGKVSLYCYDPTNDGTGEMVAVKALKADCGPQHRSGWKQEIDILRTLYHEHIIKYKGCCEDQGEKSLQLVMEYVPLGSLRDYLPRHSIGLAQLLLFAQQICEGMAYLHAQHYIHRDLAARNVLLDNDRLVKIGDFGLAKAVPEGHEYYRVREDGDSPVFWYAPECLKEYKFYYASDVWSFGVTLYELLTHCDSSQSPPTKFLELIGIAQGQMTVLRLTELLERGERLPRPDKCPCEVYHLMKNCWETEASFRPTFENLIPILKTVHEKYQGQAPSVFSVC

## Oc1cc(O)cc(/C=C/c2ccc(O)c(O)c2)c1 [Piceatannol, 3,3′,4,5′-tetrahydroxy-trans-stilbene]
[1]
  Eosinophils infiltration into the lungs: significant reduction
  Lymphocytes infiltration into the lungs: significant reduction
[2]; after 30 days of 1 mg s.c. every 48 hours
  Time to complete paralysis and death after administration was stopped: Ten
[2]; for the duration of administration, 1 mg s.c. every 48 hours
  Disease progression: completely halted disease progression
[2]; three mice with hind leg paralysis, 1 mg s.c. every 48 hours, administration stopped at that time
  Survival under treatment: 30 days
[3]
  Concentration that blocks LPS induced gene expression (e.g., RANTES, MCP-1, TNF): micromolar range
[3]; in vitro
  Concentration that blocks LPS induced gene expression (e.g., RANTES, MCP-1, ISG54): micromolar concentrations; also recorded: micromolar range
[4]
  Production of TNFα in response to LPS: inhibited
[5]
  Inhibition of tyrosine kinase ZAP70: inhibitor
[6]
  Inhibition of tyrosine kinase Syk: inhibitor
[7]
  Inhibition of tyrosine kinase Tyk2: potent inhibitor
[8]; Table 1, LPS 1 μg (+D-Gal) ip, piceatannol 250 μg ip, 28 days of observation
  Lethality rate: 5/12
[8]; Table 1, LPS 1 μg (+D-Gal) ip, piceatannol 500 μg ip, 28 days of observation
  Lethality rate: 0/8
[8]; Table 2, LPS + D-Gal 1 μg ip, piceatannol 250 μg (ip)
  Lethality rate: 3/8
[8]; Table 2, LPS + D-Gal 1 μg ip, piceatannol 250 μg (iv) + 250 μg (ip)
  Lethality rate: 0/6
[8]; Table 2, LPS + D-Gal 1 μg ip, piceatannol 400 μg (ip)
  Lethality rate: 0/2
[8]; 400 μM ip prior to LPS
  Mortality, percent dead: 48%
[8]; 1000 μM ip prior to LPS
  Mortality, percent dead: 35%
[8]; administration several hours after LPS challenge, animal model of sepsis
  Animals rescued: approximately 50%
[8]; combined intravenous and intraperitoneal administration
  Protection against endotoxic shock: up to 100%
[8]
  Mortality caused by septic shock: significantly reducing mortality
[8]; single administration by either the intravenous or intraperitoneal route
  Death associated with endotoxic shock: significantly reduced death
[8]; single administration, animal model of sepsis
  Protection against endotoxic shock: up to 100%
[9]
  Water solubility: partially water soluble
[9]; listed as piceatannol
  Water solubility: water soluble
[10]; Table 1, LPS 1000 μg ip, piceatannol 500 → 1000 μg ip, 28 days of observation
  Lethality rate: 3/8
[10]
  Mortality, percent dead: 50%
  Mortality caused by septic shock: significantly reduced mortality
[11]
  Production of IL-6 in response to LPS: inhibited
[12]; Table 1, piceatannol 1000 μg intraperitoneal, dead/total, 28 days of observation
  Lethality rate: 0/8
[12]; Table 2, piceatannol 1000 μg (ip)
  Lethality rate: 0/6
[12]; Table 2, piceatannol 1000 μg (iv)
  Lethality rate: 0/2
[12]; data of Tables 1 and 2 / Examples 1 and 3
  Toxicity in vivo (overall statement): very low toxicity; also recorded: low toxicity
[12]; healthy animals, repeated high dose (1 mg) intraperitoneal injections
  Acute or chronic toxicity: did not detect any acute or chronic toxicity
[12]; piceatannol alone, up to 1 mg intraperitoneal or intravenously
  Acute toxicity (within 2 hours post-injection): no signs of acute (i.e., within 2 hours post-injection) toxicity
[12]; with or without subsequent LPS injection, monitored for several weeks
  Delayed toxicity: no signs of delayed toxicity

## COc1cc(/C=C/c2ccc(OC)c(OC)c2)cc(OC)c1 [TMP, tetramethoxy-piceatannol]
[3]; in vitro
  Inhibition of LPS-mediated ISG induction, compared with piceatannol: as effective as piceatannol
[8]; 1000-1250 μM ip prior to LPS
  Mortality, percent dead: 38%
[8]
  Mortality caused by septic shock: significantly reducing mortality
[10]
  Mortality, percent dead: 44%
  Mortality caused by septic shock: significantly reduced mortality

## Oc1ccc(/C=C/c2cc(O)cc(O)c2)cc1 [resveratrol, trihydroxy-stilbene]
[9]
  Water solubility: water soluble
